Data: the supplement of paper PMC10307832

Tests used:
Assay in all cases: relative viability (nuclei count vs DMSO), 5 days (fraction); higher = more cells survive
[1] = compound: C1/C(=C\C2=CC=CS2)/C(=O)/C(=C/C3=CC=CS3)/C1 + CC(=O)Nc1cccc(-n2c(=O)n(C3CC3)c(=O)c3c(Nc4ccc(I)cc4F)n(C)c(=O)c(C)c32)c1 [Trametinib] (partner 0.02 µM)
Outline: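 Each reported value is a median over duplicate plates. It expresses relative viability: treated-well nuclei count divided by vehicle-well nuclei count. Lung cancer cell lines in 1536-well plates were dosed by pin tool a day after seeding, alone with one drug or with a fixed anchor-drug dose plus five library-drug doses (not always all listed) in √10 steps, and nuclei were counted after 5 days.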

[2] = compound: C1/C(=C\C2=CC=CS2)/C(=O)/C(=C/C3=CC=CS3)/C1
Outline: (§1)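 MetaXpress counted nuclei in 4× images of lung cancer cell lines that had been fixed, permeabilised and Hoechst-stained in one step. Before that, cells in 1536-well plates were kept overnight at 37 °C, pinned with five √10-spaced library-drug doses on vehicle-anchored plates, and cultured 5 days without medium change. Viability takes treated-well nuclei over vehicle-well nuclei and uses the median across plates. Plates were accepted only at control CV below 25% and at least one doubling.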

TPCA-1 = compound: C1=CC(=CC=C1C2=CC(=C(S2)NC(=O)N)C(=O)N)F [TPCA-1]
Outline: as §1

Lestaurtinib = compound: C[C@]12O[C@H](C[C@]1(O)CO)n1c3ccccc3c3c4c(c5c6ccccc6n2c5c31)CNC4=O [Lestaurtinib]
Outline: as §1

Cell Line	relative viability ([1]; first compound 0.2 µM)	relative viability ([1]; first compound 0.6325 µM)	relative viability ([1]; first compound 2 µM)	relative viability ([1]; first compound 20 µM)	relative viability ([2]; 0.2 µM)	relative viability ([2]; 0.6325 µM)	relative viability ([2]; 2 µM)	relative viability ([2]; 6.325 µM)	relative viability ([2]; 20 µM)	relative viability (TPCA-1; 0.04 µM)	relative viability (TPCA-1; 0.1265 µM)	relative viability (TPCA-1; 0.4 µM)	relative viability (TPCA-1; 1.265 µM)	relative viability (TPCA-1; 4 µM)	relative viability (Lestaurtinib; 0.005 µM)	relative viability (Lestaurtinib; 0.01581 µM)	relative viability (Lestaurtinib; 0.05 µM)	relative viability (Lestaurtinib; 0.1581 µM)	relative viability (Lestaurtinib; 0.5 µM)	relative viability ([1]; first compound 6.325 µM)
NCI-H727	0.379	0.414	0.373	0.374	1.09	0.887	1.02	0.709	0.954	0.939	0.86	0.961	0.78	0.734	1.07	1.21	1.03	0.787	0.476	
HARA	0.622	0.78	0.663	0.829	1.11	0.94	1.03	0.853	0.945	1.05	0.996	1.06	1.14	0.476	1.09	1.22	1.08	0.619	0.499	0.937
NCI-H2228	0.559	0.517	0.414	0.424	1.01	0.989	1.15	0.748	1.1	1.09	0.785	1.16	0.984	0.666	1.25	1.11	0.698	0.483	0.258	0.43
LCLC-97TM1	0.216	0.198	0.221	0.218	1.07	0.966	1.2	0.868	0.852	1.17	0.886	0.994	0.613	0.538	0.702	1.15	0.739	0.398	0.267	0.174
LC-2-ad	0.9	0.94	0.893	0.897	1.02	1.04	1.07	0.868	0.958	1.09	0.902	1.01	0.901	0.377	1.01	1.15	0.757	0.54	0.301	0.781
SK-LU-1	0.563	0.503	0.536	0.489	1.12	1.09	1.07	0.91	1.1	1.13	0.9	1.07	0.836	0.632	1.07	0.883	0.531	0.563	0.263	0.411
EKVX	0.415	0.307	0.368	0.295	0.984	0.928	1.15	0.772	0.961	1.05	0.829	1.04	0.815	0.737	1	1.09	1.05	1.01	0.663	
HCC-827	0.548	0.558	0.524	0.54	1.05	1.04	1.05	0.956	1.04	1.12	0.988	1.05	0.961	0.813	1.01	1.07	1.03	0.892	0.664	0.5
NCI-H650	1.11	1	0.884	0.944	0.973	0.885	0.956	0.984	0.906	1.03	0.823	0.946	0.488	0.557	0.953	1.03	0.844	0.46	0.403	0.943
CAL-12T	0.376	0.365	0.316	0.307	1.04	1.07	0.978	0.859	0.994	0.989	0.925	1.05	0.86	0.468	0.962	1.17	0.968	0.788	0.61	0.261
NCI-H2342	0.859	0.819	0.801	0.899	1.01	0.951	1.06	0.829	0.954	1	0.961	1.05	0.956	0.919	0.947	1.04	0.863	1.09	1.03	0.672
SW 900	0.739	0.752	0.815	0.734	0.9	0.947	0.87	0.874	0.864	0.663	0.719	0.922	0.775	0.654	0.916	1.08	0.966	1.06	0.885	0.308
IA-LM					1.04	1.01	0.905	0.91	0.94	1.1	0.923	0.963	0.812	0.903	1.11	1.42	1.28	1.21	0.557	
EPLC-272H	0.333	0.263	0.3	0.267	1.13	0.925	1.01	0.833	0.786	1.06	0.881	1.12	0.805	0.676	0.801	0.748	0.607	0.444	0.304	0.243
A-427	0.838	0.738	0.887	0.815	1.03	1.05	1.05	0.954	1.01	1.1	0.94	1.11	0.89	0.312	1.05	1.13	0.792	0.435	0.199	0.739
NCI-H647	0.464	0.49	0.407	0.447	1.01	1.01	1.02	0.84	0.85	0.972	0.818	1.07	0.867	0.48	0.918	0.988	0.513	0.407	0.172	0.467
